In article PMC11375702, “Early Preclinical Studies of Ergosterol Peroxide and Biological Evaluation of Its Derivatives” (ACS Omega, 2024):
In brackets after ≈: the same amount, converted by molar mass. Read-outs that look alike come from different tables or passages of the source.

Legend:
MDA-MB-231 = experiment: CellTiter-Glo 72 h cytotoxicity assay, MDA-MB-231; type: cell-based; conditions: Homo sapiens, CTG assay, read-out: MDA-MB231 (EC50)
Protocol: (§1) The following stable human cell lines were utilized for this study: SUM149 and MDA-MB-231 (breast cancer models) and BJ (human normal fibroblast, foreskin). Cells were purchased from BioIVT or the American Type Culture Collection (ATCC). Cells were cultured in F-12-Nutrient Mixture (SUM149), DMEM (MDA-MB-231), or EMEM (BJ) medium supplemented with 10% fetal bovine serum (Sigma-Aldrich, St. Louis, MO) and 2 mmol of L-glutamine, at 37 °C in a humidified 5% CO2 atmosphere (no antibiotics) as indicated by the manufacturer. Cell cultures were grown to 80–90% confluence before use, except where otherwise specified. Our cell lines are authenticated every 3 months using the CellCheck service (Idexx BioResearch, Westbrook, ME). Cells were tested for mycoplasma prior to use (MycoAlert detection Kit Lonza LT07–318) and discarded if they tested positive. A cell proliferation assay was performed using the CellTiter-Glo (Promega Corp., Madison, WI) luminescent cell viability assay kit. Cells were detached with trypsin, counted, and seeded in white polystyrene flat-bottom sterile 96-well tissue culture-treated plates (catalog no. 3917, Corning, Glendale, Arizona) and incubated overnight at 37 °C. MDA-MB231, SUM149, and BJ cells were seeded into 96-well plates at concentrations experimentally determined (0.4 × 10^4, 0.25 × 10^4, and 0.3 × 10^4 cells per well, respectively) to ensure logarithmic growth during the duration of the experiment and to prevent adverse effects on cell growth by DMSO exposure. The plates were incubated for 12 h before treatment. Stock solutions of test compounds (10 mM in DMSO) in nine 3-fold serial dilutions were dispensed. The final concentration of DMSO was 0.3% (v/v) in each well. The positive control used was staurosporine (10 μM) as the kill-all control, and the negative control used is DMSO as we have published. Staurosporine is a potent alkaloid inducer of various cell death modalities but primarily apoptosis, making it a reliable positive control for viability assays. The plates were incubated for 72 h and then quenched with CTG at 50 μL per well at RT. Plates were then incubated at RT for 20 min and centrifuged at 1000 rpm for 1 min. Luminescence was read on a CLARIOstar Plus plate reader (BMG LabTech, Ortenberg, Germany).
(§2) Three or four technical replicates were conducted for each experimental condition, and a minimum of three independent experiments were conducted for each assay. In vitro ADME values were expressed as mean ± standard deviation (SD) of at least three independent experiments. One-way analysis of variance (ANOVA) was adopted for comparisons among groups using the GraphPad Prism 10.2.3 (GraphPad Software, San Diego, CA). A difference of P < 0.05 was considered as statistically significant. Data are expressed as mean ± SEM. For CTG, the mean luminescence of each experimental treatment group was normalized as a percentage of the mean intensity of untreated controls (DMSO as vehicle). EC50 values were calculated from dose–response curve fitting via nonlinear regression using GraphPad Prism 10.2.3 (GraphPad Software, San Diego, CA). A therapeutic index (TI) between normal and tumor cell lines can be determined (EC50 non-neoplastic cell line BJ)/(EC50 cancer cell line). In vivo studies were analyzed using mixed-effects regression models to compare the changes in tumor volume over time by treatment group. Tumor volume reduction was compared using ANOVA with repeated measures, and all data was considered significant when P < 0.05.

[1] = Aqueous solubility by UV/vis absorbance; type: physicochemical; conditions: kinetic from dmso stock
Excerpt: First, topological polar surface area (tPSA), a widely used molecular descriptor that provides insight into compound absorption and membrane penetration, was theoretically calculated for these compounds along with the estimated c log P (partition coefficient) or log P to further assess their global therapeutic potential.[18],[19] Lipophilicity, a measurable and predictable physical property, can provide practical guidance in designing compounds with improved molecular properties.[20] The tPSA sums the contribution of the surface area of polar atoms, enabling us to determine whether the compounds are more likely to be cell membrane permeable. The aqueous solubility was measured by ultraviolet/visible (UV/vis) spectroscopy.[21] […] EP shares an improved cLogP, but still relatively high from a desirable drug candidate (2.5–3.5). […] Compound 4 has a higher c log P, while compounds 5–10 have lower c log P values. To determine LiPE (lipophilicity efficiency), the following formula was used: LiPE = pIC50 – log P, according to established methods.[22],[23] […] The obtained EC50 values for the newly generated EP derivatives were within a similar range for other derivatives previously described against TNBC models.[17]
Briefly, clear 96-well PS plates with lids (catalog no. 3903, Corning, Glendale, Arizona) were used for spectrophotometric determination of absorbance with a CLARIOstar Plus plate reader (BMG LabTech, Ortenberg, Germany) to determine at which concentration the compounds are precipitating out of solution. Decrease in transmittance of 2% or higher was considered significant. Compound solutions of 10 mM in DMSO were prepared followed by a serial dilution series, which were vortexed to ensure the solutions were homogeneous. The 96-well plate was then prepared with distilled H2O and allowed to equilibrate for 1.5 h. Then, the plate was placed in a CLARIOstar Plus plate reader or Cytation C10 (Biotek, Agilent) and set to detect absorbance at 220–700 nm. Each well was read individually. Three replicate assays were conducted for each experimental condition, and a minimum of three independent experiments were conducted.

[2] = Simulated gastric fluid (SGF) stability; type: in vitro ADME; conditions: simulated gi fluid; for half-life: SGF stability t1/2
Protocol: The simulated gastric fluid (SGF) assay is an important element in determining the overall drug-like potential of compounds.[29],[30] Anecdotal studies of oral consumption of extracts by humans indicate positive outcomes of digestion of mixtures of EP and its related natural products found in G. lucidum.[2] […] Chlorambucil was used as positive control as previously described.[32],[33] […] Caco-2 permeability studies were conducted to validate and to provide information on EP’s ability to cross the intestinal barrier and its potential for interactions with drug transporters.[36]−[39] The rate of transport in both directions (A-B and B-A) across the cell monolayer enables an efflux ratio (B-A/A-B) to be determined, enabling us to determine if a compound undergoes active efflux (efflux ratio ≥2).

BJ = experiment: CellTiter-Glo 72 h cytotoxicity assay, BJ normal fibroblasts; type: cell-based; conditions: Homo sapiens, CTG assay, noncancerous fibroblasts
Protocol: as §1, §2

[3] = Plasma protein binding, rapid equilibrium dialysis (human); type: in vitro ADME; conditions: read-out: plasma binding (human) protein binding (converted)
Protocol: This assay determines the plasma protein binding of a drug or compound and free drug concentration in plasma using rapid equilibrium dialysis. We use the Single-Use RED (rapid equilibrium dialysis, Thermo Scientific) devices to allow the aqueous component of plasma containing the free drug/compound through a dialysis membrane (MWCO ∼ 8000). Sample quantification is determined using a Waters ACQUITY-SOQ UPLC-MS-ELDS-UV system.

[4] = Plasma stability assay (mouse)
Protocol: Briefly, pooled blood from 3 animals for experiment (male Balb/c 6–8w from the division of laboratory animal medicine in-house breeding colony) was collected, and the heparinized plasma was prepared. Plasma and test compounds were added to individual wells of a 96-well microtiter plate. Compounds were incubated at 37 °C for the provided time points. All tests were performed in triplicates. The test compound was incubated with plasma at six different time points. The reaction was terminated by methanol containing an internal standard. After centrifugation, the concentration of the test compound in the supernatant was quantified by LC-MS/MS.
Plasma stability assay: Briefly, pooled blood from 3 animals for experiment (male Balb/c 6-8w
from the division of laboratory animal medicine in-house breeding colony) was collected, and
the heparinized plasma was prepared. Plasma and test compounds were added to the individual
wells of a 96-well microtiter plate. Compounds were incubated at 37°C for the provided time
points. All tests were performed in triplicates. Then, the test compound was incubated with
plasma at six different time points. The reaction was terminated by the addition of methanol
containing an internal standard. After centrifugation, the concentration of the test compound in
the supernatant was quantified by LC-MS/MS. The percentage of test compound remaining at
compounds are known to be metabolized by plasma esterases,1 and were also incubated with
each batch of test compound.
A standard protocol and MS method was used for the plasma stability experiment. The extraction
procedure for plasma/tissue samples and the spiked plasma/tissue calibration standards were
identical: A 25 µL of study sample or spiked plasma/tissue calibration standard was added to
individual pre-labeled micro-centrifuge tubes followed by 100 µL of internal standard prepared
in Acetonitrile (Albendazole, 500 ng/mL) was added except for blank, where 100 µL of
Acetonitrile was added. Samples were vortexed for 5 minutes. Samples were centrifuged for 5
minutes at a speed of 4000 rpm at 4°C. Following centrifugation, 100 µL of clear supernatant
was transferred in 96 well plates and analyzed using LC-MS/MS mode. The LC system
comprises of a binary pump that can mix two mobile phases: A = Water+0.1% formic acid; B =
acetonitrile +0.1%formic acid. The system was operated in gradient mode using a 6 minute
min, 10-90% A to B in 5.5-6 min, and then hold at this gradient, using a Phenomenex Luna, 150
X 4.6 mm, 5 µm column. Source Parameter: positive, Ion Spray Voltage 5500, Temperature
550C, interface heater on.

Compound | EC50 (MDA-MB-231) | solubility at […] ([1]; distilled water, distilled H2O, UV/vis, read-out: solubility limit) | half-life [2] | EC50 (BJ) | fraction unbound [3] | half-life ([4]; male, Balb/c, mouse, plasma) | plasma stability ([4]; species not specified) | solubility at […] ([1]; water) | SGF stability t1/2 [2]
CC(C)[C@@H](C)/C=C/[C@@H](C)[C@H]1CC[C@@H]2[C@]1(C)CC[C@H]1[C@]23C=C[C@]2(C[C@@H](O)CC[C@]12C)OO3 [Compound 2, Ergosterol peroxide] | 18 µM | 21.4 µg/mL (≈ 50 µM) | > 48 h | > 50 µM | 0.28 | > 48 h | > 48 h |  | 
CC(C)[C@@H](C)/C=C/[C@@H](C)[C@H]1CC[C@@H]2[C@]1(C)CC[C@H]1[C@]23C=C[C@]2(CC(=O)CC[C@]12C)OO3 [Compound 3] | 7 µM |  | ~9 h | > 50 µM |  |  |  | 10.7 µg/mL (≈ 25 µM) | 8.92 h
